Assay results published in ChEMBL document CHEMBL5625240, “Synthesis and evaluation of 2-NMPA derivatives as potential agents for prevention of osteoporosis in vitro and in vivo” (Eur J Med Chem, 2023).
Where “and” joins values, the source holds several entries; their conditions need not be identical. Equal values may be shown once. Blank lines part the entries; values can stand above or below the compound they belong to. Calls of active or inactive are those of the source. No cut-off for these calls is given here.

Tests used:
BMDM [1] = assay: Anti-osteoporosis activity in mouse BMDM cells assessed as inhibition of […]-induced osteoclastogenesis at 2 uM measured for 30 mins in presence of MCSF by TRAP staining based assay; assay type: functional; conditions: 0.5 h
BMDM [2] = assay: Anti-osteoporosis activity in mouse BMDM cells assessed as inhibition of RANKL-induced osteoclastogenesis at 2 uM measured for 30 mins in presence of MCSF by TRAP staining based assay; assay type: functional; conditions: for inhibition at 2 µM: Mus musculus, BMDM
BMDM [3] = assay: Anti-osteoporosis activity in mouse BMDM cells assessed as inhibition of RANKL-induced osteoclastogenesis at 1 uM measured for 30 mins in presence of MCSF by TRAP staining based assay; assay type: functional; conditions: 0.5 h
[4] = target: T1, NF-kappa-B inhibitor alpha (Mus musculus) (UniProt Q9Z1E3); assay: Inhibition of IkappaBalpha phosphorylation in RANKL/M-CSF-induced mouse BMDM cells by Western blot analysis; assay type: cell-based; conditions: dose 1.0 µM
T1 sequence (whole entry): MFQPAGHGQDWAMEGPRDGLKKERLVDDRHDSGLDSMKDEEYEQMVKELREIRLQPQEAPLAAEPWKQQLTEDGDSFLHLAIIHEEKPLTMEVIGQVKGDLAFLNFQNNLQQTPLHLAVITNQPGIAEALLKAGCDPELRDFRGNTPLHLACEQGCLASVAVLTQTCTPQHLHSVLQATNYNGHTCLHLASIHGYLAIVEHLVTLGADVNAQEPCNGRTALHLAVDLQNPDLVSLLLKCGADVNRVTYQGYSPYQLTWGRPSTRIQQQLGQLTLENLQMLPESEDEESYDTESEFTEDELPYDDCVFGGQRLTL

BMDM [5] = assay: Anti-osteoclastogenesis activity in mouse BMDM cells assessed as inhibition of RANKL/M-CSF-induced osteoclasts differentiation at 2 uM measured for 9 days by […] staining based assay; assay type: functional; conditions: 216 h, time 9 day
BMDM [6] = assay: Downregulation of c-src expression in RANKL-induced mouse BMDM cells at 1 uM incubated for 4 days by Western blot analysis; assay type: functional, cell-based; conditions: time 4.0 day
BMDM [7] = assay: Inhibition of RANKL/M-CSF-induced osteoclastogenesis in mouse BMDM cells assessed as reduction in F-actin belt size formation at 1 uM incubated for 6 days by immunofluorescence assay; assay type: functional, cell-based; conditions: time 6.0 day
BMDM [8] = assay: Inhibition of RANKL/M-CSF-induced osteoclastogenesis in mouse BMDM cells assessed as decrease in Nfatc1 mRNA level at 1 uM incubated for 4 days by qRT-PCR analysis; assay type: functional, cell-based; conditions: time 4.0 day
BMDM [9] = assay: Inhibition of AKT phosphorylation in RANKL/M-CSF-induced mouse BMDM cells by Western blot analysis; assay type: cell-based; conditions: dose 1.0 µM
BMDM [10] = assay: Anti-osteoclastogenesis activity in RANKL/M-CSF-induced mouse BMDM cells assessed as inhibition of TRAF6 protein expression at 1 uM measured for 4 days; assay type: functional, cell-based; conditions: time 4.0 day
BMDM [11] = assay: Inhibition of RANKL/M-CSF-induced osteoclastogenesis in mouse BMDM cells assessed as decrease in bone resorption pit size at 500 to 2000 nM incubated for 6 days by microscopic analysis; assay type: functional, cell-based; conditions: dose 500-2000 nM, time 6.0 day
Mus musculus [12] = assay: Anti-osteoporosis activity in OVX-induced osteoporosis C57BL/6 mouse model assessed as recovery of trabecular separation in femur at 10 mg/kg, ip daily for 4 weeks by micro computed tomographic analysis; assay type: functional, organism-based
Mus musculus [13] = assay: Anti-osteoporosis activity in OVX-induced osteoporosis C57BL/6 mouse model assessed as recovery of trabecular volume in femur at 10 mg/kg, ip daily for 4 weeks by micro computed tomographic analysis; assay type: functional, organism-based
BMDM [14] = assay: Inhibition of RANKL/M-CSF-induced osteoclastogenesis in mouse BMDM cells assessed as decrease in Acp5 mRNA level at 1 uM incubated for 4 days by qRT-PCR analysis; assay type: functional, cell-based; conditions: time 4.0 day
BMDM [15] = assay: Anti-osteoclastogenesis activity in mouse BMDM cells assessed as inhibition of RANKL/M-CSF-induced osteoclasts differentiation at below 2 uM measured for 9 days by […] staining based assay; assay type: functional, cell-based; conditions: time 9.0 day
BMDM [16] = assay: Inhibition of RANKL/M-CSF-induced osteoclastogenesis in mouse BMDM cells assessed as decrease in CTSK mRNA level at 1 uM incubated for 4 days by qRT-PCR analysis; assay type: functional, cell-based; conditions: time 4.0 day
BMDM [17] = assay: Inhibition of RANKL/M-CSF-induced osteoclastogenesis in mouse BMDM cells assessed as decrease in bone resorption pit number at 500 to 2000 nM incubated for 6 days by microscopic analysis; assay type: functional, cell-based; conditions: dose 500-2000 nM, time 6.0 day
BMDM [18] = assay: Downregulation of TRAF6 expression in RANKL-induced mouse BMDM cells at 1 uM incubated for 4 days by Western blot analysis; assay type: functional, cell-based; conditions: time 4.0 day
BMDM [19] = assay: Downregulation of c-fos expression in RANKL-induced mouse BMDM cells at 1 uM incubated for 4 days by Western blot analysis; assay type: functional, cell-based; conditions: time 4.0 day
Mus musculus [20] = assay: Anti-osteoporosis activity in OVX-induced osteoporosis C57BL/6 mouse model assessed as prevention of bone loss in femur at 10 mg/kg, ip daily for 4 weeks by micro computed tomographic analysis; assay type: functional, organism-based
Mus musculus [21] = assay: Anti-osteoporosis activity in OVX-induced osteoporosis C57BL/6 mouse model assessed as recovery of bone surface density in femur at 10 mg/kg, ip daily for 4 weeks by micro computed tomographic analysis; assay type: functional, organism-based
BMDM [22] = assay: Inhibition of RANKL/M-CSF-induced osteoclastogenesis in mouse BMDM cells assessed as decrease in Dc-stamp mRNA level at 1 uM incubated for 4 days by qRT-PCR analysis; assay type: functional, cell-based; conditions: time 4.0 day
Mus musculus [23] = assay: Anti-osteoporosis activity in OVX-induced osteoporosis C57BL/6 mouse model assessed as reduction in […] level in serum at 10 mg/kg, ip daily for 4 weeks; assay type: functional, organism-based
BMDM [24] = assay: Inhibition of RANKL/M-CSF-induced osteoclastogenesis in mouse BMDM cells assessed as reduction in F-actin belt size formation at 1000 nM incubated for 6 days by immunofluorescence assay; assay type: functional, cell-based; conditions: time 6.0 day
BMDM [25] = assay: Cytotoxicity against mouse BMDM cells assessed as reduction in cell viability at < 4 uM incubated for 48 hrs; assay type: toxicity, cell-based
BMDM [26] = assay: Downregulation of CTSK expression in RANKL-induced mouse BMDM cells at 1 uM incubated for 4 days by Western blot analysis; assay type: functional, cell-based; conditions: time 4.0 day
BMDM [27] = assay: Inhibition of PI3K phosphorylation in RANKL/M-CSF-induced mouse BMDM cells by Western blot analysis; assay type: cell-based; conditions: dose 1.0 µM
BMDM [28] = assay: Inhibition of RANKL/M-CSF-induced osteoclastogenesis in mouse BMDM cells assessed as decrease in Atp6v0d2 mRNA level at 1 uM incubated for 4 days by qRT-PCR analysis; assay type: functional, cell-based; conditions: time 4.0 day
BMDM [29] = assay: Inhibition of NF-kappaB phosphorylation in RANKL/M-CSF-induced mouse BMDM cells by Western blot analysis; assay type: cell-based; conditions: dose 1.0 µM
BMDM [30] = assay: Inhibition of RANKL/M-CSF-induced osteoclastogenesis in mouse BMDM cells assessed as decrease in Mmp9 mRNA level at 1 uM incubated for 4 days by qRT-PCR analysis; assay type: functional, cell-based; conditions: time 4.0 day
BMDM [31] = assay: Downregulation of NFATc1 expression in mouse RANKL-induced BMDM cells at 1 uM incubated for 4 days by Western blot analysis; assay type: functional, cell-based; conditions: time 4.0 day
BMDM [32] = assay: Inhibition of RANKL/M-CSF-induced osteoclastogenesis in mouse BMDM cells assessed as reduction in F-actin belt size formation at 500 to 2000 nM incubated for 6 days by immunofluorescence assay; assay type: functional, cell-based; conditions: dose 500-2000 nM, time 6.0 day
BMDM [33] = assay: Anti-osteoporosis activity in mouse BMDM cells assessed as inhibition of RANKL/M-CSF-induced osteoclasts formation measured for 4 days by TRAP staining based assay; assay type: functional, cell-based
Mus musculus [34] = assay: Anti-osteoporosis activity in OVX-induced osteoporosis C57BL/6 mouse model assessed as recovery of trabecular number in femur at 10 mg/kg, ip daily for 4 weeks by micro computed tomographic analysis; assay type: functional, organism-based
BMDM [35] = assay: Inhibition of RANKL/M-CSF-induced osteoclastogenesis in mouse BMDM cells assessed as decrease in bone resorption pit size at 1000 nM incubated for 6 days by microscopic analysis; assay type: functional, cell-based; conditions: time 6.0 day

Compound: Cc1ccc(OCC(=O)Nc2cccc(Cl)c2N2CCOCC2)c(C(C)C)c1
inhibition at 2 µM (BMDM [1]): 82.9%
inhibition at 2 µM (BMDM [2]; 0.5 h): 86.4%

Compound: O=C(COc1ccccc1Cl)Nc1ccc(OC(=O)c2cccs2)cc1N1CCOCC1
inhibition at 1 µM (BMDM [3]): 39.3%

Compound: Cc1cc(OCC(=O)Nc2ccccc2N2CCOCC2)cc(C)c1Cl
inhibition (BMDM [2]): inactive

Compound: O=C(CS(=O)(=O)c1ccccc1)Nc1cccc(Cl)c1N1CCOCC1
inhibition at 2 µM (BMDM [2]; 0.5 h): 62.1%

Compound: Cc1cccc(OCC(=O)Nc2ccccc2N2CCOCC2)c1C
inhibition at 2 µM (BMDM [2]; 0.5 h): 13.6%

Compound: O=C(COc1ccccc1Cl)Nc1ccccc1N1CCOCC1
inhibition at 1 µM (BMDM [3]): 21%

Compound: CC(C)(C)OC(=O)N[C@@H](Cc1cn(C(=O)OC(C)(C)C)cn1)C(=O)Oc1ccc(NC(=O)COc2ccccc2Cl)c(N2CCOCC2)c1
inhibition at 1 µM (BMDM [3]): 34.6%

Compound: CS(=O)(=O)N(CC(=O)Nc1ccccc1Sc1ccccc1)c1cccc(C(=O)Oc2ccc(NC(=O)COc3ccccc3Cl)c(N3CCOCC3)c2)c1
inhibition at 1 µM (BMDM [3]): 50.9%

Compound: O=C(COc1ccccc1Cl)Nc1ccc(O)cc1N1CCOCC1
inhibition at 1 µM (BMDM [3]): 27.1%

Compound: CC(C)(C)[Si](C)(C)Oc1ccc(NC(=O)COc2ccccc2Cl)c(N2CCOCC2)c1
inhibition at 1 µM (BMDM [3]): 34.8%

Compound: Cc1ccc(S(=O)(=O)CC(=O)Nc2cc(Cl)ccc2N2CCOCC2)cc1
inhibition at 2 µM (BMDM [2]; 0.5 h): 30.9%

Compound: O=C(CSc1cccc2ccccc12)Nc1ccccc1N1CCOCC1
inhibition at 2 µM (BMDM [2]; 0.5 h): 61.3%

Compound: O=C(COc1ccccc1Cl)Nc1ccc(OC(=O)c2ccco2)cc1N1CCOCC1
inhibition at 1 µM (BMDM [3]): 31.4%

inhibition [4]: Active
IC50 (BMDM [33]; 96 h): 358 nM
Compound: CC(=O)Nc1ccc(S(=O)(=O)Oc2ccc(NC(=O)COc3ccccc3Cl)c(N3CCOCC3)c2)cc1
inhibition at 2 µM (BMDM [5]): 100%
Activity (BMDM [6]): Active
inhibition (BMDM [7]): Active
inhibition (BMDM [8]): Active
inhibition (BMDM [9]): Active
Activity (BMDM [10]): Active
inhibition (BMDM [11]): Active
Activity (Mus musculus [12]): Active
Activity (Mus musculus [13]): Active
inhibition (BMDM [14]): Active
inhibition (BMDM [15]): inactive
inhibition (BMDM [16]): Active
inhibition (BMDM [17]): Active
Activity (BMDM [18]): Active
inhibition at 1 µM (BMDM [3]): 61.5%
Activity (BMDM [19]): Active
Activity (Mus musculus [20]): Active
Activity (Mus musculus [21]): Active
inhibition (BMDM [22]): Active
Activity (Mus musculus [23]): Active
inhibition (BMDM [24]): Active
Activity (BMDM [25]): Non-Toxic
Activity (BMDM [26]): Active
inhibition (BMDM [27]): Active
inhibition (BMDM [28]): Active
inhibition (BMDM [29]): Active
inhibition (BMDM [30]): Active
Activity (BMDM [31]): Active
inhibition (BMDM [32]): Active
inhibition (BMDM [33]; dose <= 4000.0 nM, time 4.0 day): Dose-Dependent Effect
Activity (Mus musculus [34]): Active

Compound: CC(=O)Nc1ccc(S(=O)(=O)Oc2ccc(N)c(N3CCOCC3)c2)cc1
inhibition at 1 µM (BMDM [3]): 11.3%

Compound: Cc1cc(=O)oc2cc(OCC(=O)Nc3cc(C(F)(F)F)ccc3N3CCOCC3)ccc12
inhibition at 2 µM (BMDM [1]): 29.4%
inhibition at 2 µM (BMDM [2]; 0.5 h): 95.3%

Compound: COC(=O)c1ccc(N2CCOCC2)c(NC(=O)COc2cccc(C)c2)c1
inhibition at 2 µM (BMDM [1]): 2.77%
inhibition at 1 µM (BMDM [3]): 52.5%
inhibition (INH) (BMDM [2]; 0.5 h, 2 µM): 94.58% and 52.52%

Compound: CC(Oc1ccc(Cl)cc1Cl)C(=O)Nc1cccc(Cl)c1N1CCOCC1 (configuration not stated)
inhibition at 2 µM (BMDM [2]; 0.5 h): 43.4%

Compound: NCCCC(O)(P(=O)(O)O)P(=O)(O)O [ALENDRONIC ACID]
inhibition at 2 µM (BMDM [2]; 0.5 h): 67.9%

Compound: O=C(COc1ccccc1Cl)Nc1ccc(OC(=O)c2ccccc2F)cc1N1CCOCC1
inhibition at 1 µM (BMDM [3]): 34.2%

Compound: CCC(=O)N1CCN(c2ccccc2NC(=O)COc2ccccc2Cl)CC1
inhibition (BMDM [35]): Active
inhibition at 1 µM (BMDM [3]): 42%
Activity (Mus musculus [23]): Active

Compound: O=C(COc1ccccc1Cl)Nc1ccc(OS(=O)(=O)C(F)(F)F)cc1N1CCOCC1
inhibition at 1 µM (BMDM [3]): 50.5%

Compound: CCC(=O)Oc1ccc(NC(=O)COc2ccccc2Cl)c(N2CCOCC2)c1
inhibition at 1 µM (BMDM [3]): 32.8%

Compound: CCCN(CCC)S(=O)(=O)c1ccc(C(=O)Oc2ccc(NC(=O)COc3ccccc3Cl)c(N3CCOCC3)c2)cc1
inhibition at 1 µM (BMDM [3]): 21.6%
